Test results reported in EP4417602A1, “SUBSTITUTED PYRAZOLE CARBOXAMIDES, SALTS THEREOF AND THEIR USE AS HERBICIDALLY ACTIVE SUBSTANCES” (Bayer AG, priority 2023, dated 2024).

Experiments:
MATIN = experiment: A. Herbicidal pre-emergence action on harmful plants (Tables A); format: in vivo, Matricaria inodora; settings: visual grading after ca. 3 weeks vs untreated controls, 100% = plants have died off, 0% = as control plants
Method in brief: (§1)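 Greenhouse pre-emergence test: compound applied to the soil surface at 1280 g/ha or below, and herbicidal effect rated visually at ca. 3 weeks on a 0–100% scale against untreated plants.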

SETVI [1] = experiment: as above; format: in vivo, Setaria viridis; settings: visual grading after ca. 3 weeks vs untreated controls, 100% = plants have died off, 0% = as control plants
Method in brief: as §1

STEME [2] = experiment: as above; format: in vivo, Stellaria media; settings: visual grading after ca. 3 weeks vs untreated controls, 100% = plants have died off, 0% = as control plants
Method in brief: as §1

POAAN [3] = experiment: as above; format: in vivo, Poa annua
Method in brief: as §1

AMARE [4] = experiment: as above; format: in vivo, Amaranthus retroflexus
Method in brief: as §1

KCHSC [5] = experiment: as above; format: in vivo, Kochia scoparia; settings: application rate 1280 g/ha; visual grading after ca. 3 weeks vs untreated controls; 100% = plants have died off, 0% = as control plants
Excerpt: (§2) Seeds of mono- and dicotyledonous weed plants were sown in plastic pots (double sowings with one species of mono- and one species of dicotyledonous weed plants per pot), in sandy loam, and covered with soil. The compounds according to the invention, formulated in the form of wettable powders (WP) or as emulsifiable concentrates (EC), were applied to the surface of the covering soil as aqueous suspension or emulsion, with the addition of 0.5% of an additive, at an application rate of 6001 of water per hectare (converted). Following treatment, the pots were placed in a greenhouse and kept under optimum growth conditions for the test plants. The visual grading of the damage to the test plants was carried out after ca. 3 weeks in comparison to untreated controls (herbicidal effect in percent (%): 100% effect = plants have died off, 0% effect = as control plants). Tables A1 to A12, below, show the effects of selected compounds of the general formula (I) according to table 1 on various harmful plants and an application rate corresponding to 1280 g/ha or below obtained by the experimental procedure mentioned above. Table A1: pre-emergence activity at 1280g/ha against ABUTH in %

DIGSA = experiment: as above; format: in vivo, Digitaria sanguinalis
Method in brief: as §1

VERPE = experiment: B. Herbicidal post-emergence action on harmful plants (Tables B); format: in vivo, Veronica persica; settings: application rate 1280 g/ha; Table B11a
Method in brief: (§3)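 Activity was scored visually as % damage (100% = dead, 0% = like untreated) about 3 weeks after treatment. Plants at the one-leaf stage, 2-3 weeks old, were sprayed with WP/EC formulations plus 0.5% additive (600 L/ha water, up to 1280 g/ha). Plants were grown in sandy loam in a greenhouse.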

KCHSC [6] = experiment: C. Herbicidal pre-emergence action, weed and crop plants (Tables C); format: in vivo, Kochia scoparia; settings: application rate 320 g/ha; Table C1
Excerpt: (§4) Seeds of mono- and dicotyledonous weed plants and crop plants were sown, in plastic or organic planting pots, in sandy loam and covered with soil. The compounds according to the invention, formulated in the form of wettable powders (WP) or as emulsifiable concentrates (EC), were applied to the surface of the covering soil as aqueous suspension or emulsion, with the addition of 0.5% of an additive, at an application rate of 6001 of water/ha (converted). Following treatment, the pots were placed in a greenhouse and kept under optimum growth conditions for the test plants. The visual grading of the damage to the test plants was carried out after ca. 3 weeks in comparison to untreated controls (herbicidal effect in percent (%): 100% effect = plants have died off, 0% effect = as control plants). Tables C1 to C12 below show the effects of selected compounds of the general formula (I) according to table 1 on various harmful plants and an application rate corresponding to 320 g/ha or below obtained by the experimental procedure mentioned above. Table C1: pre-emergence activity at 320g/ha against KCHSC in %

VIOTR = experiment: as above; format: in vivo, Viola tricolor; settings: application rate 320 g/ha; Table C12a
Excerpt: as §4

ZEAMX [7] = experiment: D. Pre-emergence effects on crop plants (Tables D); format: in vivo, Zea mays; settings: crop plant
Excerpt: (§5) Seeds of mono- and dicotyledonous weed plants and crop plants were sown, in plastic or organic planting pots, in sandy loam and covered with soil. The compounds according to the invention, formulated in the form of wettable powders (WP) or as emulsifiable concentrates (EC), were applied to the surface of the covering soil as aqueous suspension or emulsion, with the addition of 0.5% of an additive, at an application rate of 6001 of water/ha (converted).
(§6) Following treatment, the pots were placed in a greenhouse and kept under optimum growth conditions for the test plants. The visual grading of the damage to the test plants was carried out after ca. 3 weeks in comparison to untreated controls (herbicidal effect in percent (%): 100% effect = plants have died off, 0% effect = as control plants).
(§7) Tables D1 to D5 below show the effects of various compounds of the general formula (I) according to Table 1 on various crop plants and an application rate corresponding to 320 g/ha or below obtained by the experimental procedure mentioned above in Biological Examples, Section C. Table D1a: pre-emergence activity at 320g/ha against ZEAMX in %

TRZAS [8] = experiment: D. Pre-emergence effects on crop plants (Tables D); format: in vivo, Triticum aestivum; settings: crop plant
Excerpt: as §5, §6, §7

GLXMA [9] = experiment: D. Pre-emergence effects on crop plants (Tables D); format: in vivo, Glycine max; settings: crop plant
Method in brief: (§8)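 Pre-emergence soil-surface treatment at 320 g/ha or lower, using wettable-powder or emulsifiable-concentrate formulations in water plus 0.5% additive, over freshly sown seeds in covered sandy loam. Damage was rated visually as percent versus untreated pots (100% = dead plants) after about 3 weeks of greenhouse growth.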

BRSNW [10] = experiment: D. Pre-emergence effects on crop plants (Tables D); format: in vivo, Brassica napus; settings: crop plant
Method in brief: as §8

ZEAMX [11] = experiment: F. Post-emergence effects on crop plants (Tables F); format: in vivo, Zea mays; settings: crop plant
Method in brief: (§9)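 Plants were grown in sandy loam in a greenhouse and sprayed post-emergence at the single-leaf stage, 2–3 weeks after sowing. Visual damage was scored after ca. 3 weeks against untreated controls (0% = as control, 100% = dead).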

TRZAS [12] = experiment: as above; format: in vivo, Triticum aestivum; settings: crop plant
Method in brief: as §9

GLXMA [13] = experiment: as above; format: in vivo, Glycine max; settings: application rate 320 g/ha, crop plant
Method in brief: as §9

BRSNW [14] = experiment: as above; format: in vivo, Brassica napus; settings: application rate 320 g/ha, crop plant
Method in brief: as §9

ABUTH = experiment: A. Herbicidal pre-emergence action on harmful plants (Tables A); format: in vivo, Abutilon theophrasti; settings: application rate 1280 g/ha; visual grading after ca. 3 weeks vs untreated controls; 100% = plants have died off, 0% = as control plants
Excerpt: as §2

ECHCG = experiment: as above; format: in vivo, Echinochloa crus-galli; settings: visual grading after ca. 3 weeks vs untreated controls, 100% = plants have died off, 0% = as control plants
Method in brief: as §1

LOLRI = experiment: as above; format: in vivo, Lolium rigidum; settings: visual grading after ca. 3 weeks vs untreated controls, 100% = plants have died off, 0% = as control plants
Method in brief: as §1

SETVI [15] = experiment: B. Herbicidal post-emergence action on harmful plants (Tables B); format: in vivo, Setaria viridis; settings: application rate 1280 g/ha; Table B5
Method in brief: as §3

STEME [16] = experiment: as above; format: in vivo, Stellaria media; settings: application rate 1280 g/ha; Table B6
Method in brief: as §3

POAAN [17] = experiment: as above; format: in vivo, Poa annua; settings: application rate 1280 g/ha; Table B7a
Method in brief: as §3

AMARE [18] = experiment: as above; format: in vivo, Amaranthus retroflexus; settings: application rate 1280 g/ha; Table B8
Method: (§10) Seeds of mono- and dicotyledonous weed plants were placed in plastic pots in sandy loam soil (doubly sown with in each case one species of mono- or dicotyledonous weed plants per pot), covered with soil and cultivated in a greenhouse under controlled growth conditions. 2 to 3 weeks after sowing, the test plants were treated at the one-leaf stage. The compounds of the invention, formulated in the form of wettable powders (WP) or as emulsion concentrates (EC), were applied onto the green parts of the plants as aqueous suspension or emulsion with addition of 0.5% additive at a water application rate of 600 liters per hectare (converted). After the test plants had been kept in the greenhouse under optimum growth conditions for about 3 weeks, the activity of the preparations was rated visually in comparison to untreated controls. For example, 100% activity = the plants have died, 0% activity = like control plants. Tables B1 to B12, below, show the effects of selected compounds of the general formula (I) according to table 1 on various harmful plants and an application rate corresponding to 1280 g/ha or below obtained by the experimental procedure mentioned above. Table B1a: post-emergence activity at 1280g/ha against ABUTH in %

KCHSC [19] = experiment: as above; format: in vivo, Kochia scoparia; settings: application rate 1280 g/ha; Table B10a
Method: as §10

[20] = application rate 80 g/ha, Table A7c
[21] = application rate 320 g/ha, Table A7b
[22] = application rate 1280 g/ha, visual grading after ca. 3 weeks vs untreated controls, 100% = plants have died off, 0% = as control plants
[23] = application rate 320 g/ha, Table A12b
[24] = application rate 1280 g/ha, Table A12a

## COCc1nn(Cc2ccccc2)cc1C(=O)N1CCCC1Cc1ccccc1F (racemic) [Example I-024]
MATIN; application rate 80 g/ha
  pre-emergence activity against MATIN: 90%
MATIN; application rate 320 g/ha
  pre-emergence activity against MATIN: 90%
MATIN; application rate 1280 g/ha
  pre-emergence activity against MATIN: 90%
SETVI [1]; application rate 80 g/ha
  pre-emergence activity against SETVI: 90%
SETVI [1]; application rate 320 g/ha
  pre-emergence activity against SETVI: 90%
SETVI [1]; application rate 1280 g/ha
  pre-emergence activity against SETVI: 90%
STEME [2]; application rate 320 g/ha
  pre-emergence activity against STEME: 90%
STEME [2]; application rate 1280 g/ha
  pre-emergence activity against STEME: 100%
POAAN [3]; [20]
  pre-emergence activity against POAAN: 90%
POAAN [3]; [21]
  pre-emergence activity against POAAN: 90%
POAAN [3]; [22]
  pre-emergence activity against POAAN: 100%
AMARE [4]; application rate 320 g/ha, Table A8b
  pre-emergence activity against AMARE: 90%
AMARE [4]; [22]
  pre-emergence activity against AMARE: 90%
KCHSC [5]
  pre-emergence activity against KCHSC: 90%
DIGSA; [23]
  pre-emergence activity against DIGSA: 90%
DIGSA; [24]
  pre-emergence activity against DIGSA: 90%
VERPE
  post-emergence activity against VERPE: 90%

## COCc1c(C(=O)N2CCCC2(C)Cc2ccccc2F)cnn1C (single isomer, unassigned) [Example I-066]
KCHSC [6]
  pre-emergence activity against KCHSC: 100%
VIOTR
  pre-emergence activity against VIOTR: 80%
ZEAMX [7]; application rate 80 g/ha, Table D1b
  pre-emergence activity against ZEAMX: 0%
ZEAMX [7]; application rate 320 g/ha, Table D1a
  pre-emergence activity against ZEAMX: 0%
TRZAS [8]; application rate 80 g/ha, Table D2b
  pre-emergence activity against TRZAS: 0%
TRZAS [8]; application rate 320 g/ha, Table D2a
  pre-emergence activity against TRZAS: 0%
GLXMA [9]; application rate 80 g/ha, Table D4b
  pre-emergence activity against GLXMA: 0%
GLXMA [9]; application rate 320 g/ha, Table D4a
  pre-emergence activity against GLXMA: 0%
BRSNW [10]; application rate 80 g/ha
  pre-emergence activity against BRSNW in %: 0%
BRSNW [10]; application rate 320 g/ha
  pre-emergence activity against BRSNW in %: 0%
ZEAMX [11]; application rate 80 g/ha
  post-emergence activity against ZEAMX in %: 0%
ZEAMX [11]; application rate 320 g/ha
  post-emergence activity against ZEAMX in %: 0%
TRZAS [12]; application rate 80 g/ha
  post-emergence activity against TRZAS in %: 0%
TRZAS [12]; application rate 320 g/ha
  post-emergence activity against TRZAS in %: 0%
GLXMA [13]
  post-emergence activity against GLXMA in %: 0%
BRSNW [14]
  post-emergence activity against BRSNW in %: 0%

## Cn1ncc(C(=O)N2CCCC2Cc2ccccc2F)c1COCC(F)(F)F (single isomer, unassigned) [Example I-122]
ABUTH
  pre-emergence activity against ABUTH: 100%
ECHCG; application rate 80 g/ha
  pre-emergence activity against ECHCG: 90%
ECHCG; application rate 320 g/ha
  pre-emergence activity against ECHCG: 100%
ECHCG; application rate 1280 g/ha
  pre-emergence activity against ECHCG: 100%
LOLRI; application rate 320 g/ha
  pre-emergence activity against LOLRI: 100%
LOLRI; application rate 1280 g/ha
  pre-emergence activity against LOLRI: 100%
MATIN; application rate 1280 g/ha
  pre-emergence activity against MATIN: 100%
SETVI [1]; application rate 80 g/ha
  pre-emergence activity against SETVI: 90%
SETVI [1]; application rate 320 g/ha
  pre-emergence activity against SETVI: 90%
SETVI [1]; application rate 1280 g/ha
  pre-emergence activity against SETVI: 100%
STEME [2]; application rate 320 g/ha
  pre-emergence activity against STEME: 90%
STEME [2]; application rate 1280 g/ha
  pre-emergence activity against STEME: 100%
POAAN [3]; [20]
  pre-emergence activity against POAAN: 90%
POAAN [3]; [21]
  pre-emergence activity against POAAN: 100%
POAAN [3]; [22]
  pre-emergence activity against POAAN: 100%
AMARE [4]; [22]
  pre-emergence activity against AMARE: 100%
DIGSA; application rate 80 g/ha, Table A12c
  pre-emergence activity against DIGSA: 90%
DIGSA; [23]
  pre-emergence activity against DIGSA: 90%
DIGSA; [24]
  pre-emergence activity against DIGSA: 100%
SETVI [15]
  post-emergence activity against SETVI: 90%
STEME [16]
  post-emergence activity against STEME: 90%
POAAN [17]
  post-emergence activity against POAAN: 90%
AMARE [18]
  post-emergence activity against AMARE: 90%
KCHSC [19]
  post-emergence activity against KCHSC: 90%
